From ChEMBL document CHEMBL4118139, “Novel naphthyloxy derivatives - Potent histamine H3 receptor ligands. Synthesis and pharmacological evaluation” (Bioorg Med Chem, 2018)
The source made the active and inactive calls. The rule behind the calls is not given here.

Legend:
[1] = target: T1, Histamine H3 receptor (Homo sapiens, UniProt Q9Y5N1); assay: Displacement of [3H]N-alpha-methylhistamine from full length human H3 receptor expressed in HEK293 cell membranes after 90 mins
[2] = system: IMR-32; assay: Cytotoxicity against human IMR32 cells assessed as reduction in cell viability after 72 hrs by MTS assay; type: cell-based; details: IMR-32, 72 h
[3] = system: HepG2; assay: Cytotoxicity against human HepG2 cells assessed as reduction in cell viability after 72 hrs by MTS assay; type: cell-based; details: HepG2, 72 h
[4] = system: HEK293; assay: Cytotoxicity against HEK293 cells assessed as reduction in cell viability after 72 hrs by MTS assay; type: cell-based; details: Homo sapiens, HEK293, 72 h
[5] = system: Salmonella typhimurium; assay: Mutagenicity in Salmonella typhimurium TA100 assessed as increase in number of revertants at 10 uM after 90 mins by Ames test; type: toxicity, organism-based; details: salmonella enterica subsp. enterica serovar typhimurium, 1.5 h
[6] = target: CYP3A4 (Homo sapiens, UniProt P08684); assay: Inhibition of CYP3A4 (unknown origin) at 25 uM by CYP3A4 P450-Glo assay; type: ADME
Chain of CYP3A4 (P08684 whole entry): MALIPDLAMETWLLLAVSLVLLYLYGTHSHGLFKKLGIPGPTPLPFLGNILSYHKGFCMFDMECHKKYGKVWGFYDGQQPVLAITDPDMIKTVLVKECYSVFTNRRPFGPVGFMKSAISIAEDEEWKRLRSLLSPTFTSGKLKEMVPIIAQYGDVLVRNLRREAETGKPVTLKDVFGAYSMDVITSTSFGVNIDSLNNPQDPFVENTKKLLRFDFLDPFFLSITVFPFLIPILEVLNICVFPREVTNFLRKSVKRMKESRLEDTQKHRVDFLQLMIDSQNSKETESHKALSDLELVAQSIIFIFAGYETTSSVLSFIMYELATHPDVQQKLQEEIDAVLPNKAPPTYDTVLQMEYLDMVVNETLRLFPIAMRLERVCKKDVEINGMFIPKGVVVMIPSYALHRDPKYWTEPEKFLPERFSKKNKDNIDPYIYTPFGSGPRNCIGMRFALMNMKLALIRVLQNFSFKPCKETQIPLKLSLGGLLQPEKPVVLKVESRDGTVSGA

[7] = system: Salmonella typhimurium; assay: Mutagenicity in Salmonella typhimurium TA100 assessed as increase in number of revertants at 1 uM after 90 mins by Ames test; type: toxicity, organism-based; details: salmonella enterica subsp. enterica serovar typhimurium, 1.5 h
[8] = system: Rattus norvegicus; assay: In vivo antagonist activity at H3 receptor in RAMH-induced dipsogenic Wistar (Krf:(WI) WU) rat model assessed as inhibition of RAMH-water intake at 1.25 mg/kg, ip administered 30 mins prior to RAMH induction; type: functional
[9] = system: Mus musculus; assay: Anticonvulsant activity in ip dosed albino CF-1 mouse assessed as protection against subcutaneous pentylenetetrazole-induced seizures measured after 1 hr; type: functional; details: CF-1, 1 h
[10] = system: Mus musculus; assay: Anticonvulsant activity in ip dosed albino CF-1 mouse assessed as protection against 32 mA current-induced seizure after 1 hr by 6 Hz psychomotor test; type: functional; details: CF-1, ip
[11] = system: Mus musculus; assay: Anticonvulsant activity in ip dosed albino CF-1 mouse assessed as protection against 44 mA current-induced seizure after 0.25 hrs by 6 Hz psychomotor test; type: functional; details: CF-1, ip
[12] = system: Mus musculus; assay: Effect on spontaneous locomotor activity in ip dosed albino Swiss CD1 mouse assessed as inhibition of number of light beam crossings treated for 30 mins measured for next 30 mins in 10 min intervals; type: organism-based; details: in vivo, 0.5 h
[13] = system: Mus musculus; assay: (§1) Cognition enhancing effect in albino Swiss CD-1 mouse assessed as reversal of scopolamine-induced amnesia by measuring latency time at 15 mg/kg, ip treated 30 mins prior to acquisition trial followed by scopolamine challenge immediately after acquisition trial by passive avoidance test (reference value: 39.31 +/- 4.01 secs); type: functional
[14] = system: Mus musculus; assay: Analgesic activity in ip dosed albino Swiss CD1 mouse assessed reduction in formalin-induced inflammatory pain by measuring reduction in time spent in licking treated prior to formalin injection measured at 0 to 5 mins post formalin injection; type: functional
[15] = target: T1, Histamine H3 receptor; assay: Displacement of […] from full length recombinant human H3 receptor expressed in HEK293 cell membranes after 90 mins by scintillation counting method
[16] = system: Mus musculus; assay: as §1, with “30” for “15”; type: functional
[17] = system: Mus musculus; assay: Analgesic activity in ip dosed albino Swiss CD1 mouse assessed reduction in formalin-induced inflammatory pain by measuring reduction in time spent in licking pretreated prior to formalin injection measured at 15 to 30 mins post formalin injection; type: functional
[18] = target: Histamine H1 receptor (Cavia porcellus) (UniProt P31389); assay: Antagonist activity at histamine H1 receptor in guinea-pig ileum assessed as inhibition of histamine-induced contractions after 15 mins; type: functional
Chain of Histamine H1 receptor (Cavia porcellus) (P31389 whole entry): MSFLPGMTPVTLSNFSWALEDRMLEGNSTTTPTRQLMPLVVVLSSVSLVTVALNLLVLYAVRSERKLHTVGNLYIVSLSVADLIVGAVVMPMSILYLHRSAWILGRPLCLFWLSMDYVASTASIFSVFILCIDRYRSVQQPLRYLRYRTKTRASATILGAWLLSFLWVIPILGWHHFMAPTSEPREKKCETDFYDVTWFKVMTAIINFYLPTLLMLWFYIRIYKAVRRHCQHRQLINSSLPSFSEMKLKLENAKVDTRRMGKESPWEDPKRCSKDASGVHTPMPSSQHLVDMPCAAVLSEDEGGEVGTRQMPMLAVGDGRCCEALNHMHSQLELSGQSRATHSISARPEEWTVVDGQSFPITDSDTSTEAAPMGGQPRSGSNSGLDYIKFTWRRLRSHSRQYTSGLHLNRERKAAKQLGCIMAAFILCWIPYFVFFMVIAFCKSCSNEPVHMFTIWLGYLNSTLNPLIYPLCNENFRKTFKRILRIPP

[19] = target: D(1B) dopamine receptor (Homo sapiens) (UniProt P21918); assay: Displacement of [3H]-SCH23390 from human dopamine D5 receptor expressed in HEK293 cell membranes at 1 uM relative to fluphenazin
Chain of D(1B) dopamine receptor (Homo sapiens) (P21918 whole entry): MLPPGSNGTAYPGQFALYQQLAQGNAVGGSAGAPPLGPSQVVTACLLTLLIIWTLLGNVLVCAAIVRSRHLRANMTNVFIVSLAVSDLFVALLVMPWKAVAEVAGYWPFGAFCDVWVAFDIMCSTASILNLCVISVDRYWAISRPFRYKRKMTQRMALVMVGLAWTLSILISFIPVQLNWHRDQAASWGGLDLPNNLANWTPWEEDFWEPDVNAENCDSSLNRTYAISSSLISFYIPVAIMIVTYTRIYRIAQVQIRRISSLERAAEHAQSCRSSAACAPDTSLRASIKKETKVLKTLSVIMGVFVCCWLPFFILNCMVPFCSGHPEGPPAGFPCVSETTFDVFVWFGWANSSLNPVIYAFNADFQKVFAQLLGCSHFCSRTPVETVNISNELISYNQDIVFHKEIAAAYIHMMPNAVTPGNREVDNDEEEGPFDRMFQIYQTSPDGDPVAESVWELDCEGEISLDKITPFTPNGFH

[20] = target: 5-hydroxytryptamine receptor 2A (Homo sapiens, UniProt P28223); assay: Displacement of [3H]-ketanserin from human 5-HT2A receptor expressed in CHO cell membranes after 1 hr
[21] = system: Mus musculus; assay: as §1, with “amnesia” for “amnesia by measuring latency time”, “20 to 30” for “15”; type: functional, organism-based
[22] = target: Histamine H1 receptor (Homo sapiens) (UniProt P35367); assay: Displacement of [3H]-pyrilamine from human histamine H1 receptor expressed in CHO cell membranes at 1 uM relative to chlorpheniramine
[23] = system: Mus musculus; assay: as §1, with “10” for “15”; type: functional
[24] = target: D(1A) dopamine receptor (Homo sapiens) (UniProt P21728); assay: Displacement of [3H]-SCH23390 from human dopamine D1 receptor expressed in HEK293 cell membranes at 1 uM relative to fluphenazin
Chain of D(1A) dopamine receptor (Homo sapiens) (P21728 whole entry): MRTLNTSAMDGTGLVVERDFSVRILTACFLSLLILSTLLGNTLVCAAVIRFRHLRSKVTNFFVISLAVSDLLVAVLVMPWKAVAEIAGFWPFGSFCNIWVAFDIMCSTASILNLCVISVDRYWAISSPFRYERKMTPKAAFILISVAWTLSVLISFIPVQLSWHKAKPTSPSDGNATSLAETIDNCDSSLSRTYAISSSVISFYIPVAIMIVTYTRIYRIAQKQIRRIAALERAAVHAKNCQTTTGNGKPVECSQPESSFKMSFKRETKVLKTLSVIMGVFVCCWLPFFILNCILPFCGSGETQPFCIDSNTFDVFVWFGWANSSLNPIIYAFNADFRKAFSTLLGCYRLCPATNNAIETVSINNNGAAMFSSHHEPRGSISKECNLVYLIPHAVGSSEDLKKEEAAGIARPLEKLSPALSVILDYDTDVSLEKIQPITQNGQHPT

[25] = target: 5-hydroxytryptamine receptor 7 (Homo sapiens, UniProt P34969); assay: Displacement of [3H]-5-carboxyamidotryptamine from human 5-HT7 receptor expressed in HEK293 cell membranes after 1 hr
Chain of 5-hydroxytryptamine receptor 7 (P34969 whole entry): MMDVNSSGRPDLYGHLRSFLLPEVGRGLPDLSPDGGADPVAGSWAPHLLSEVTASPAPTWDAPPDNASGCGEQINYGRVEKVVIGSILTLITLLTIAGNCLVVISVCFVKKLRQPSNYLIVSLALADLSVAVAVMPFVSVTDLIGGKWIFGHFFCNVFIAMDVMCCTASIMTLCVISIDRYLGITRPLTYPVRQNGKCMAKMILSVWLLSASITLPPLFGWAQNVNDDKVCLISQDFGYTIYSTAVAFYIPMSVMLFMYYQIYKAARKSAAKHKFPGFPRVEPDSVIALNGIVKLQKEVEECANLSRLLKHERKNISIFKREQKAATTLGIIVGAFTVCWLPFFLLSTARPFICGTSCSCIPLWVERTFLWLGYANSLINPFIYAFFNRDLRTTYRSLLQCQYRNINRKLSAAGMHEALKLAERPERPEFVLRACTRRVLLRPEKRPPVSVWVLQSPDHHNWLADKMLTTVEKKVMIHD

[26] = target: 5-hydroxytryptamine receptor 6 (Homo sapiens, UniProt P50406); assay: Displacement of [3H]-LSD from human 5-HT6 receptor expressed in HEK293 cell membranes after 1 hr
Chain of 5-hydroxytryptamine receptor 6 (P50406 whole entry): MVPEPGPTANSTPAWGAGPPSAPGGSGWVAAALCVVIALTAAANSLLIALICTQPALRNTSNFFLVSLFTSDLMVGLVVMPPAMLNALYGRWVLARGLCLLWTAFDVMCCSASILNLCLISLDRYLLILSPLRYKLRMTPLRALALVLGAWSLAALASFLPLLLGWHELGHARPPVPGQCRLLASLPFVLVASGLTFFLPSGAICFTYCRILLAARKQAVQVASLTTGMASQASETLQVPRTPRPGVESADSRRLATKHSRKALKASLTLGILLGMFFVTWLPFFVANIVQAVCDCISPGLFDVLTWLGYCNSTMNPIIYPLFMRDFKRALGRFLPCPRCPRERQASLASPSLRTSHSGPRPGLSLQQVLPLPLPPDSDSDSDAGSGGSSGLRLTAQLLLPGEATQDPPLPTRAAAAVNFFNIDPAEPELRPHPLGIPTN

[27] = target: T1, Histamine H3 receptor; assay: Antagonist activity at human H3 receptor expressed in HEK293 cells assessed as inhibition of RAMH-induced reduction of forskolin-stimulated cAMP accumulation after 30 mins by Ulight-based TR-FRET assay; type: functional, cell-based
[28] = target: Muscarinic acetylcholine receptor M3 (Cavia porcellus) (UniProt Q8VH26); assay: Agonist activity at muscarinic M3 receptor in guinea-pig ileum assessed as induction of contractions at 1 to 3 uM after 15 mins; type: functional
Chain of Muscarinic acetylcholine receptor M3 (Cavia porcellus) (Q8VH26 1-587): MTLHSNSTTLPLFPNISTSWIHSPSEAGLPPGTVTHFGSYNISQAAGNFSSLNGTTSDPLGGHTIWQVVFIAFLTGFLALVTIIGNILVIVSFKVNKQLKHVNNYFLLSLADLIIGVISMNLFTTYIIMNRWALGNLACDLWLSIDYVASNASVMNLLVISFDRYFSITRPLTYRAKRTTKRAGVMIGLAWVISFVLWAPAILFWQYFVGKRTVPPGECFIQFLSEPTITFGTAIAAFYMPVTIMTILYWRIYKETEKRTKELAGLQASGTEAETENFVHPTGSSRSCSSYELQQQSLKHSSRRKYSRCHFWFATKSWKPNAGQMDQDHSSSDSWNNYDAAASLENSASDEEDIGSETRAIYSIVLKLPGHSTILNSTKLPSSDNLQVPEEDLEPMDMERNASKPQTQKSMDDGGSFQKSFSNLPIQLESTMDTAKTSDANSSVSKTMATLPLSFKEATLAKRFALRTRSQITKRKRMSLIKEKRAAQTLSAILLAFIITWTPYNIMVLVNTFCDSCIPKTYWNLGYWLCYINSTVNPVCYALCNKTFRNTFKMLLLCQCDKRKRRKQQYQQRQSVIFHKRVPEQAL

[29] = target: D(2) dopamine receptor (Homo sapiens) (UniProt P14416); assay: Displacement of [3H]-spiperone from human dopamine D2 receptor expressed in CHO cell membranes at 1 uM relative to haloperidol
Chain of D(2) dopamine receptor (Homo sapiens) (P14416 whole entry): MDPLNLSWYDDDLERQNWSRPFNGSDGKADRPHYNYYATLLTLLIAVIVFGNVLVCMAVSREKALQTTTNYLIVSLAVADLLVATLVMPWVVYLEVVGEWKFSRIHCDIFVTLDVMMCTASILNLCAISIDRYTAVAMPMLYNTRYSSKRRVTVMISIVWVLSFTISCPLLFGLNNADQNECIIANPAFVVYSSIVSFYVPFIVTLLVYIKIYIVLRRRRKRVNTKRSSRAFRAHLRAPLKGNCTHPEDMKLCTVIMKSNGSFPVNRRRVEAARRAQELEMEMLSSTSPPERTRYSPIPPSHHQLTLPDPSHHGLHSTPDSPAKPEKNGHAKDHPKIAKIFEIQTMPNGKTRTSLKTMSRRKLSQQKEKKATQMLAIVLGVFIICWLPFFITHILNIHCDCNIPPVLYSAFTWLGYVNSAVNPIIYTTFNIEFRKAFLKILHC

[30] = target: Histamine H1 receptor (Cavia porcellus) (UniProt P31389); assay: Agonist activity at histamine H1 receptor in guinea-pig ileum assessed as induction of contractions at 1 to 3 uM after 15 mins; type: functional
[31] = target: Histamine H1 receptor (Cavia porcellus, UniProt P31389); assay: Antagonist potency at histamine H1 receptor in guinea-pig ileum assessed as inhibition of histamine-induced contractions at 0.3 to 3 uM after 15 mins; type: functional; details: read-out: pA2 (converted)
Chain of Histamine H1 receptor (P31389 whole entry): as the sequence (P31389 whole entry) above

[32] = system: Rattus norvegicus; assay: In vivo antagonist activity at H3 receptor in RAMH-induced dipsogenic ip dosed Wistar (Krf:(WI) WU) rat model assessed as inhibition of RAMH-water intake administered 30 mins prior to RAMH induction; type: functional
[33] = target: D(3) dopamine receptor (Homo sapiens) (UniProt P35462); assay: Displacement of [3H]-spiperone from human dopamine D3 receptor expressed in CHO cell membranes at 1 uM relative to haloperidol
[34] = target: Histamine H4 receptor (Homo sapiens) (UniProt Q9H3N8); assay: Displacement of [3H]-Histamine from human histamine H4 receptor expressed in insect sf9 cell membranes at 1 uM relative to JNJ-7777120
[35] = target: Histamine H3 receptor (Rattus norvegicus, UniProt Q9QYN8); assay: Displacement of [3H]-(R)alpha-MeHA from rat brain H3 receptor
Chain of Histamine H3 receptor (Rattus norvegicus, UniProt Q9QYN8) (Q9QYN8 whole entry): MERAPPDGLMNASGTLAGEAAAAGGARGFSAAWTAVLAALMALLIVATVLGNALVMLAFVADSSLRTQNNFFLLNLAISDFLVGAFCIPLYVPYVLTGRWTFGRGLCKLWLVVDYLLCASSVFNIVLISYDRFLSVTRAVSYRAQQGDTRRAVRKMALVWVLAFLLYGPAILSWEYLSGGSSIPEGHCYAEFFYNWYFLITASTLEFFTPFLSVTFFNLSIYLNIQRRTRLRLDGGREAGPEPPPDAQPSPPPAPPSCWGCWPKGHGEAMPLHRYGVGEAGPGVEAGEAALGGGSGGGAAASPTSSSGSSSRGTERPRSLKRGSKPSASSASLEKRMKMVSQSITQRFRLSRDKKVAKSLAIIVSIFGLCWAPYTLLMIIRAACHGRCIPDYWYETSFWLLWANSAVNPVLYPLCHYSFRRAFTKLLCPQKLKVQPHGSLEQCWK

[36] = Therapeutic index, ratio of ip dosed albino CF-1 mouse TD50 to ip dosed albino CF-1 mouse ED50 for MES assay; type: toxicity, organism-based; details: in vivo, read-out: TI
[37] = system: Mus musculus; assay: Anticonvulsant activity in ip dosed albino CF-1 mouse assessed as protection against maximal electroshock-induced seizures after 1 hr; type: functional; details: CF-1, ip
[38] = Neurotoxicity in ip dosed albino CF-1 mouse after 0.25 hrs by rotarod test; type: toxicity, organism-based; details: in vivo

T1 sequence (Q9Y5N1 whole entry): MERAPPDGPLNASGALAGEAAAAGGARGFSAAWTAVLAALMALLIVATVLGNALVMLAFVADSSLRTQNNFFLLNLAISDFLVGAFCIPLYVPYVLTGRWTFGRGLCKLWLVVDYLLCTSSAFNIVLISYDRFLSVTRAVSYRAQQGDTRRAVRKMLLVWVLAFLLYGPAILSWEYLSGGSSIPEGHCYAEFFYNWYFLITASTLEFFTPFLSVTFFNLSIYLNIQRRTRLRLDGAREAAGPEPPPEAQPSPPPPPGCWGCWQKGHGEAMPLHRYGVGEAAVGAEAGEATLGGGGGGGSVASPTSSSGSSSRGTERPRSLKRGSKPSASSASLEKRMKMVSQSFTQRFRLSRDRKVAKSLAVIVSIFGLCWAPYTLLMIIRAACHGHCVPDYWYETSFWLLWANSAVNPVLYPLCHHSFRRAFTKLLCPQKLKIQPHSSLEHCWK

CC1CCCN(CCCCCOc2ccc3ccccc3c2)C1 (stereo unspecified)
Ki [1]: 42.3 nM

CC1CCN(CCCCCOc2ccc3ccccc3c2)CC1
Ki [1]: 95 nM

COc1cccc2c1C(=O)c1c(O)c3c(c(O)c1C2=O)C[C@@](O)(C(=O)CO)C[C@@H]3O[C@H]1C[C@H](N)[C@H](O)[C@H](C)O1 [DOXORUBICIN]
IC50 [2]: 50 nM
IC50 [3]: 550 nM
IC50 [4]: 360 nM

CC1CCCN(CCCCCOc2cccc3ccccc23)C1 (stereo unspecified)
IC50 [2]: 32300 nM
Activity [5]: Non-Toxic
inhibition at 25 µM [6]: 50%
Ki [1]: 32.8 nM
IC50 [3]: 38600 nM
IC50 [4]: > 50000 nM
Activity [7]: Non-Toxic

c1ccc2cc(OCCCCCN3CCCCC3)ccc2c1
Ki [1]: 53.5 nM

Clc1ccc(CCCOCCCN2CCCCC2)cc1 [PITOLISANT]
inhibition in vivo at 1.25 mg/kg [8]: 87.4%

c1ccc2cc(OCCCCCCN3CCCCC3)ccc2c1
Ki [1]: 61.8 nM

CCCC(CCC)C(=O)O [VALPROIC ACID]
ED50 [9]: 220 mg/kg
ED50 [10]: 126 mg/kg
ED50 [11]: 310 mg/kg

c1ccc2c(OCCCCCCN3CCCCCC3)cccc2c1
ED50 [12]: 21.66 mg/kg
Ki [1]: 69.3 nM
Time [13]: 87.77 s
ED50 [14]: 28.3 mg/kg
Ki [15]: 69 nM
Time [16]: 68.64 s
ED50 [17]: 18.1 mg/kg

c1ccc2c(OCCCCCCN3CCCCC3)cccc2c1
Ki [1]: 52.9 nM

CC1CCN(CCCCCCOc2ccc3ccccc3c2)CC1
Ki [1]: 92.1 nM

c1ccc2cc(OCCCCCCN3CCCCCC3)ccc2c1
Ki [1]: 69.3 nM

c1ccc2cc(OCCCCCN3CCCCCC3)ccc2c1
Ki [1]: 57.3 nM

CC(=O)Oc1ccccc1C(=O)O [ASPIRIN]
ED50 [17]: 25.2 mg/kg

CC1CCCN(CCCCCCOc2cccc3ccccc23)C1 (stereo unspecified)
Ki [1]: 47.6 nM

c1ccc2c(OCCCCCN3CCCCCC3)cccc2c1
IC50 [2]: 35700 nM
inhibition [18]: Dose-dependent effect
inhibition [19]: -10%
Activity [5]: Non-Toxic
ED50 [12]: 20.47 mg/kg
inhibition at 25 µM [6]: 50%
Ki [20]: 2610 nM
Ki [1]: 21.9 nM
Time [13]: 91.47 s
IC50 [3]: 25300 nM
Activity [21]: inactive
inhibition [22]: 19%
Time [23]: 83.61 s
ED50 [14]: 30.6 mg/kg
inhibition [24]: 14%
Ki [25]: 2800 nM
Ki [26]: 1840 nM
IC50 [27]: 312 nM
inhibition [27]: Dose-dependent effect
IC50 [4]: > 50000 nM
Activity [28]: inactive
inhibition [29]: 12%
ED50 [17]: 20.8 mg/kg
Activity [30]: inactive
Kb [31]: 708 nM
ED50 [32]: 3.68 mg/kg
Activity [7]: Non-Toxic
inhibition [33]: 17%
inhibition [34]: 29%

CC1CCN(CCCCCOc2cccc3ccccc23)CC1
Ki [1]: 43.3 nM

S=C(NC1CCCCC1)N1CCC(c2cnc[nH]2)CC1 [THIOPERAMIDE]
Ki [35]: 2.1 nM

CN1CC[C@]23c4c5ccc(O)c4O[C@H]2[C@@H](O)C=C[C@H]3[C@H]1C5 [MORPHINE]
ED50 [14]: 2.38 mg/kg

CC1CCCN(CCCCCCOc2ccc3ccccc3c2)C1 (stereo unspecified)
Ki [1]: 55.9 nM

Nc1nnc(-c2cccc(Cl)c2Cl)c(N)n1 [LAMOTRIGINE]
ED50 [9]: > 40 mg/kg
selectivity ratio [36]: 4
ED50 [37]: 7.47 mg/kg
TD50 at 0.25 h [38]: 30 mg/kg
ED50 [10]: > 60 mg/kg
ED50 [11]: > 60 mg/kg

CC1CCN(CCCCCCOc2cccc3ccccc23)CC1
Ki [1]: 126 nM
